# Assays:
# Format in all cases: functional
# Malme-3M [1] = assay: Cytotoxicity against human MALME-3M cells assessed as cell growth at 1 uM after 48 hrs by sulforhodamine B assay relative to control; conditions: read-out: Activity
# SF-268 = assay: Cytotoxicity against human SF268 cells assessed as cell growth at 0.01 uM after 48 hrs by sulforhodamine B assay relative to control; conditions: SF-268, 48 h, read-out: Activity
# MDA-MB-468 [2] = assay: Cytotoxicity against human MDA-MB-468 cells assessed as cell growth at 1 uM after 48 hrs by sulforhodamine B assay relative to control; conditions: MDA-MB-468, 48 h, read-out: Activity
# M14 [3] = assay: Cytotoxicity against human M14 cells assessed as cell growth at 10 uM after 48 hrs by sulforhodamine B assay relative to control; conditions: M14, 48 h, read-out: Activity
# A498 [4] = assay: Cytotoxicity against human A498 cells assessed as cell growth at 0.1 uM after 48 hrs by sulforhodamine B assay relative to control; conditions: A498, 48 h, read-out: Activity
# UO-31 [5] = assay: Cytotoxicity against human UO31 cells assessed as cell growth at 0.01 uM after 48 hrs by sulforhodamine B assay relative to control; conditions: UO-31, 48 h, read-out: Activity
# Malme-3M [6] = assay: Cytotoxicity against human MALME-3M cells assessed as cell growth at 10 uM after 48 hrs by sulforhodamine B assay relative to control; conditions: read-out: Activity
# COLO 205 [7] = assay: Cytotoxicity against human COLO205 cells assessed as cell growth at 100 uM after 48 hrs by sulforhodamine B assay relative to control; conditions: COLO 205, 48 h, read-out: Activity
# HCT-15 = assay: Cytotoxicity against human HCT15 cells assessed as cell growth at 0.1 uM after 48 hrs by sulforhodamine B assay relative to control; conditions: HCT-15, 48 h, read-out: Activity
# NCI-H23 = assay: Cytotoxicity against human NCI-H23 cells assessed as cell growth at 1 uM after 48 hrs by sulforhodamine B assay relative to control; conditions: NCI-H23, 48 h, read-out: Activity
# A498 [8] = assay: Cytotoxicity against human A498 cells assessed as cell growth at 100 uM after 48 hrs by sulforhodamine B assay relative to control; conditions: A498, 48 h, read-out: Activity
# HT-29 = assay: Cytotoxicity against human HT-29 cells assessed as cell growth at 1 uM after 48 hrs by sulforhodamine B assay relative to control; conditions: HT-29, 48 h, read-out: Activity
# 786-0 = assay: Cytotoxicity against human 786-0 cells assessed as cell growth at 0.1 uM after 48 hrs by sulforhodamine B assay relative to control; conditions: 786-0, 48 h, read-out: Activity
# K562 = assay: Cytotoxicity against human K562 cells assessed as cell growth at 100 uM after 48 hrs by sulforhodamine B assay relative to control; conditions: K562, 48 h, read-out: Activity
# MDA-MB-468 [9] = assay: Cytotoxicity against human MDA-MB-468 cells assessed as cell growth at 0.1 uM after 48 hrs by sulforhodamine B assay relative to control; conditions: MDA-MB-468, 48 h, read-out: Activity
# M14 [10] = assay: Cytotoxicity against human M14 cells assessed as growth inhibition after 48 hrs by sulforhodamine B assay; conditions: M14, 48 h
# SNB-19 = assay: Cytotoxicity against human SNB19 cells assessed as cell growth at 1 uM after 48 hrs by sulforhodamine B assay relative to control; conditions: SNB-19, 48 h, read-out: Activity
# IGROV-1 [11] = assay: Cytotoxicity against human IGROV1 cells assessed as cell growth at 100 uM after 48 hrs by sulforhodamine B assay relative to control; conditions: IGROV-1, 48 h, read-out: Activity
# IGROV-1 [12] = assay: Cytotoxicity against human IGROV1 cells assessed as cell growth at 0.1 uM after 48 hrs by sulforhodamine B assay relative to control; conditions: IGROV-1, 48 h, read-out: Activity
# HCC 2998 = assay: Cytotoxicity against human HCC2998 cells assessed as growth inhibition after 48 hrs by sulforhodamine B assay; conditions: HCC 2998, 48 h
# OVCAR-5 = assay: Cytotoxicity against human OVCAR5 cells assessed as cell growth at 100 uM after 48 hrs by sulforhodamine B assay relative to control; conditions: OVCAR-5, 48 h, read-out: Activity
# RXF 393 = assay: Cytotoxicity against human RXF393 cells assessed as cell growth at 10 uM after 48 hrs by sulforhodamine B assay relative to control; conditions: RXF 393, 48 h, read-out: Activity
# Malme-3M [13] = assay: Cytotoxicity against human MALME-3M cells assessed as cell growth at 100 uM after 48 hrs by sulforhodamine B assay relative to control; conditions: read-out: Activity
# HL-60(TB) = assay: Cytotoxicity against human HL-60(TB) cells assessed as cell growth at 10 uM after 48 hrs by sulforhodamine B assay relative to control; conditions: HL-60, 48 h, read-out: Activity
# UO-31 [14] = assay: Cytotoxicity against human UO31 cells assessed as cell growth at 1 uM after 48 hrs by sulforhodamine B assay relative to control; conditions: UO-31, 48 h, read-out: Activity
# OVCAR-3 = assay: Cytotoxicity against human OVCAR3 cells assessed as cell growth at 1 uM after 48 hrs by sulforhodamine B assay relative to control; conditions: OVCAR-3, 48 h, read-out: Activity
# MDA-MB-231 = assay: Cytotoxicity against human MDA-MB-231 cells assessed as cell growth at 100 uM after 48 hrs by sulforhodamine B assay relative to control; conditions: MDA-MB-231, 48 h, read-out: Activity
# COLO 205 [15] = assay: Cytotoxicity against human COLO205 cells assessed as cell growth at 1 uM after 48 hrs by sulforhodamine B assay relative to control; conditions: COLO 205, 48 h, read-out: Activity
# HOP-62 = assay: Cytotoxicity against human HOP62 cells assessed as cell growth at 0.01 uM after 48 hrs by sulforhodamine B assay relative to control; conditions: HOP-62, 48 h, read-out: Activity
# MCF7 = assay: Cytotoxicity against human MCF7 cells assessed as growth inhibition after 48 hrs by sulforhodamine B assay; conditions: MCF7, 48 h
# NCI-H322M = assay: Cytotoxicity against human NCI-H322M cells assessed as cell growth at 0.1 uM after 48 hrs by sulforhodamine B assay relative to control; conditions: read-out: Activity
# M14 [16] = assay: Cytotoxicity against human M14 cells assessed as cell growth at 0.1 uM after 48 hrs by sulforhodamine B assay relative to control; conditions: M14, 48 h, read-out: Activity
# NCI-H226 = assay: Cytotoxicity against human NCI-H226 cells assessed as cell growth at 100 uM after 48 hrs by sulforhodamine B assay relative to control; conditions: NCI-H226, 48 h, read-out: Activity
# COLO 205 [17] = assay: Cytotoxicity against human COLO205 cells assessed as cell growth at 0.01 uM after 48 hrs by sulforhodamine B assay relative to control; conditions: COLO 205, 48 h, read-out: Activity
# UO-31 [18] = assay: Cytotoxicity against human UO31 cells assessed as cell growth at 100 uM after 48 hrs by sulforhodamine B assay relative to control; conditions: UO-31, 48 h, read-out: Activity
# ACHN = assay: Cytotoxicity against human ACHN cells assessed as growth inhibition after 48 hrs by sulforhodamine B assay
# SR = assay: Cytotoxicity against human SR cells assessed as cell growth at 0.1 uM after 48 hrs by sulforhodamine B assay relative to control; conditions: read-out: Activity
structure (smiles),measurement,setting,value
COc1ccc(-c2cc(/C=C/C(=O)c3ccc(N)cc3)[nH]n2)cc1OC,growth at 1 µM,Malme-3M [1],114%
same,growth at 0.01 µM,SF-268,100%
same,growth at 1 µM,MDA-MB-468 [2],77%
same,growth at 10 µM,M14 [3],-42%
same,growth at 0.1 µM,A498 [4],80%
same,growth at 0.01 µM,UO-31 [5],92%
same,growth at 10 µM,Malme-3M [6],37%
same,growth at 100 µM,COLO 205 [7],-78%
same,growth at 0.1 µM,HCT-15,95%
same,growth at 1 µM,NCI-H23,99%
same,growth at 100 µM,A498 [8],-98%
same,growth at 1 µM,HT-29,99%
same,growth at 0.1 µM,786-0,95%
same,growth at 100 µM,K562,-3%
same,growth at 0.1 µM,MDA-MB-468 [9],91%
same,GI50,M14 [10],2.28 µM
same,LC50 (concentration killing 50% of cells),M14 [10],15 µM
same,TGI,M14 [10],5.11 µM
same,growth at 1 µM,SNB-19,84%
same,growth at 100 µM,IGROV-1 [11],-62%
same,growth at 0.1 µM,IGROV-1 [12],106%
same,GI50,HCC 2998,2.02 µM
same,LC50,HCC 2998,7.24 µM
same,TGI,HCC 2998,3.83 µM
same,growth at 100 µM,OVCAR-5,-81%
same,growth at 10 µM,RXF 393,-39%
same,growth at 100 µM,Malme-3M [13],-75%
same,growth at 10 µM,HL-60(TB),10%
same,growth at 1 µM,UO-31 [14],86%
same,growth at 1 µM,OVCAR-3,92%
same,growth at 100 µM,MDA-MB-231,-77%
same,growth at 1 µM,COLO 205 [15],98%
same,growth at 0.01 µM,HOP-62,83%
same,GI50,MCF7,2.28 µM
same,LC50,MCF7,71.2 µM
same,TGI,MCF7,8.48 µM
same,growth at 0.1 µM,NCI-H322M,102%
same,growth at 0.1 µM,M14 [16],97%
same,growth at 100 µM,NCI-H226,-55%
same,growth at 0.01 µM,COLO 205 [17],92%
same,growth at 100 µM,UO-31 [18],-85%
same,GI50,ACHN,1.67 µM
same,LC50,ACHN,6.48 µM
same,TGI,ACHN,3.29 µM
same,growth at 0.1 µM,SR,104%
COc1ccc(-c2cc(/C=C/C(=O)c3ccc(N)cc3)[nH]n2)cc1,growth at 1 µM,Malme-3M [1],87%
same,growth at 0.01 µM,SF-268,95%
same,growth at 1 µM,MDA-MB-468 [2],29%
same,growth at 10 µM,M14 [3],-24%
same,growth at 0.1 µM,A498 [4],97%
same,growth at 0.01 µM,UO-31 [5],90%
same,growth at 10 µM,Malme-3M [6],-23%
same,growth at 100 µM,COLO 205 [7],-74%
same,growth at 0.1 µM,HCT-15,100%
same,growth at 1 µM,NCI-H23,93%
same,growth at 100 µM,A498 [8],-96%
same,growth at 1 µM,HT-29,97%
same,growth at 0.1 µM,786-0,95%
same,growth at 100 µM,K562,-60%
same,growth at 0.1 µM,MDA-MB-468 [9],86%
same,GI50,M14 [10],2.67 µM
same,LC50 (concentration killing 50% of cells),M14 [10],36.1 µM
same,TGI,M14 [10],6.54 µM
same,growth at 1 µM,SNB-19,75%
same,growth at 100 µM,IGROV-1 [11],-67%
same,growth at 0.1 µM,IGROV-1 [12],91%
same,GI50,HCC 2998,1.83 µM
same,LC50,HCC 2998,6.17 µM
same,TGI,HCC 2998,3.36 µM
same,growth at 100 µM,OVCAR-5,-86%
same,growth at 10 µM,RXF 393,-47%
same,growth at 100 µM,Malme-3M [13],-82%
same,growth at 10 µM,HL-60(TB),-8%
same,growth at 1 µM,UO-31 [14],61%
same,growth at 1 µM,OVCAR-3,63%
same,growth at 100 µM,MDA-MB-231,-65%
same,growth at 1 µM,COLO 205 [15],100%
same,growth at 0.01 µM,HOP-62,107%
same,GI50,MCF7,0.78 µM
same,LC50,MCF7,34.1 µM
same,TGI,MCF7,3.84 µM
same,growth at 0.1 µM,NCI-H322M,89%
same,growth at 0.1 µM,M14 [16],103%
same,growth at 100 µM,NCI-H226,-51%
same,growth at 0.01 µM,COLO 205 [17],97%
same,growth at 100 µM,UO-31 [18],-87%
same,GI50,ACHN,2.01 µM
same,LC50,ACHN,49.2 µM
same,TGI,ACHN,10.6 µM
same,growth at 0.1 µM,SR,98%
